Structures can show the parent of a compound that is named as a salt.
Legend:
NCI-H1417 cells = assay: In vitro cell inhibition assay - H1417 cell proliferation (CellTiter-Glo); assay type: cell-based
Outline: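 Cells exposed to 8 compound concentrations (5-fold dilutions) in BEGM with 10% FBS for 7 days at 37° C., 5% CO2. Viable cells measured by CellTiter-Glo luminescence; inhibition versus no-inhibitor and no-cell controls, IC50 fitted.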

pan-HDAC = assay: In vitro enzyme inhibition assay - HDAC (HDAC-Glo I/II), pan-HDAC; assay type: biochemical
Outline: (§1)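 Eight compound concentrations (5-fold gradient; 1 mM DMSO stock) were assayed by HDAC-Glo I/II luminescence. IC50 was obtained by four-parameter fitting.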

HDAC8 = HDAC8 (Homo sapiens (Human), UniProt Q9BY41); assay: In vitro enzyme inhibition assay - HDAC (HDAC-Glo I/II), HDAC8; assay type: biochemical; conditions: read-out: HDAC IC50 (nM) HDAC 8
Outline: as §1

HDAC1 = HDAC1 (Homo sapiens (Human), UniProt Q13547); assay: In vitro enzyme inhibition assay - HDAC (HDAC-Glo I/II), HDAC1; assay type: biochemical; conditions: read-out: HDAC IC50 (nM) HDAC 1
Description: 2. In Vitro Enzyme Inhibition Assay—HDAC
The effect of the compound on the enzymatic activity of pan-HDAC and two isoforms (HDAC1 and HDAC8) was examined using the HDAC-Glo I/II Assay and Screening System assay to assess the level of inhibition of HDAC protease activity and selectivity in each isoform. The proteins and detection reagents were from the HDAC-Glo™ I/II Assay and Screening System (Promega). A 1 mM stock solution of the compound was prepared in DMSO and diluted in a 5-fold gradient to create a series of 8 concentrations, and a specific volume of the highest concentration was diluted 25 times with HDAC Buffer to obtain 4× working solution of the compound. […] The 384-well plate was then read on a multifunctional microplate reader, with the Luminescence channel selected to record Luminescence values (RLU). The inhibition rate was calculated using the following formula: […]
Note: ‘Negative’ refers to the group without the inhibitor; ‘Blank’ refers to the group without the enzyme.
The IC50 value was calculated by fitting the inhibition rate by GraphPad Prism software, employing log (inhibitor) vs. response-Variable Slope (four parameters) model.

LSD1 = LSD1 (Homo sapiens (Human), UniProt O60341); assay: In vitro enzyme inhibition assay - LSD1 (HTRF); assay type: biochemical
NCI-H526 cells = assay: In vitro cell inhibition assay - NCI-H526 cell proliferation (CellTiter-Glo); assay type: cell-based; conditions: Homo sapiens, NCI-H526, 120 h, H526 small cell lung cancer cell proliferation, 5 days
Outline: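 NCI-H526 cells plated at 1×10^3 per well overnight, then treated with 8 concentrations (5-fold dilutions) in RPMI-640 with 10% FBS for 5 days at 37° C., 5% CO2. Viable cells quantified by CellTiter-Glo luminescence; IC50 fitted from inhibition rates relative to no-inhibitor and no-cell controls.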

NCI-H69 cells = assay: In vitro cell inhibition assay - NCI-H69 cell proliferation (CellTiter-Glo); assay type: cell-based; conditions: Homo sapiens, NCI-H69, H69 small cell lung cancer cell proliferation
Outline: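 Luminescence from CellTiter-Glo reagent served as the viability read-out after cells were exposed to compounds for 7 days at 37° C. Eight concentrations in a 5-fold series were tested in medium with 20% FBS. Inhibition was normalised to untreated and cell-free wells before IC50 fitting.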

[1] = Homo sapiens, NCI-H1417, H1417 small cell lung cancer cell proliferation

Chain of HDAC8 (Q9BY41 whole entry): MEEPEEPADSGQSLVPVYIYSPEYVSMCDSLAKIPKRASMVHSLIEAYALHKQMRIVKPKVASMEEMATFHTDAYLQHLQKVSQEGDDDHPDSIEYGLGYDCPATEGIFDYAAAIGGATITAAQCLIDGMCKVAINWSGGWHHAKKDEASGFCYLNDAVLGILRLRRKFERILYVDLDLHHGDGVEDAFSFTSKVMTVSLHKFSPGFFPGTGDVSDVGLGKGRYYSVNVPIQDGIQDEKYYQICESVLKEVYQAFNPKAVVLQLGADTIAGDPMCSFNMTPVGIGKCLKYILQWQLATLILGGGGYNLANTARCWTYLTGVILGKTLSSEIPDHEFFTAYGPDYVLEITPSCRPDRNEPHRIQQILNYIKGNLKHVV
Chain of HDAC1 (Q13547 whole entry): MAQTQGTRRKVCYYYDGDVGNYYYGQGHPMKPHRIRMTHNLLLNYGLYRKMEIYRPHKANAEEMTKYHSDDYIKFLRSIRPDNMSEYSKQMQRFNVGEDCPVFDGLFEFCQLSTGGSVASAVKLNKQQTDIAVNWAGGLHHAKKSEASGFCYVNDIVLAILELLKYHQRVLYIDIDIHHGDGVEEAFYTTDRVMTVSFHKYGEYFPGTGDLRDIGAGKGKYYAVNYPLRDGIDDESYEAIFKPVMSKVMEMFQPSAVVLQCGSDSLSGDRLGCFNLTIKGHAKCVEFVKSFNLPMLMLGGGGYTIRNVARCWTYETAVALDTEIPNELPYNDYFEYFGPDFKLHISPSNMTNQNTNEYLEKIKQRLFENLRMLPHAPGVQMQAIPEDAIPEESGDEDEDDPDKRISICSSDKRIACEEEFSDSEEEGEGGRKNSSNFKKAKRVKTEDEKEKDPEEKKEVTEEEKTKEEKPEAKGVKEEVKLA

SMILES	IC50 (NCI-H1417 cells; [1]) [nM]	IC50 (pan-HDAC) [nM]	IC50 (HDAC8) [nM]	IC50 (HDAC1) [nM]	IC50 (LSD1) [nM]	IC50 (NCI-H526 cells) [nM]	IC50 (NCI-H69 cells) [nM]	IC50 (NCI-H1417 cells; H1417 small cell lung cancer cell proliferation) [nM]
COc1ccc(-c2c(OCCCCCCC(=O)NO)cc(N3CCC(N)CC3)nc2-c2ccc(C#N)c(F)c2)cc1O [Example 1, 7-((6-(4-aminopiperidin-1-yl)-2-(4-cyano-3-fluorophenyl)-3-(3-hydroxy-4-methoxyphenyl)pyridin-4-yl)oxy)-N-hydroxyheptanamide hydrochloride]	216	17.5	215	68.1	–	–	–	–
CNC1CCN(c2ncc(-c3ccc(OCCCCCCC(=O)NO)c(O)c3)c(-c3ccc(C#N)c(F)c3)c2C#N)CC1 [Example 24, 7-(4-(5-cyano-4-(4-cyano-3-fluorophenyl)-6-(4-(methylamino)piperidin-1-yl)pyridin-3-yl)-2-hydroxyphenoxy)-N-hydroxyheptanamide hydrochloride]	42.3	5.83	118	8.28	0.41	–	–	–
COc1ccc(-c2cnc(N3CCC(NCc4ccc(/C=C/C(=O)NO)cc4)CC3)c(C#N)c2-c2cnc(C#N)c(OC)c2)cc1O [Example 243, (E)-3-(4-(((1-(3′,6-Dicyano-5′-(3-hydroxy-4-methoxyphenyl)-5-methoxy-[3,4′-bipyridin]-2′-yl)piperidin-4-yl)amino)methyl)phenyl)-N-hydroxyacrylamide hydrochloride]	10.5	1.74	–	0.6	13.6	10.6	3.24	–
COc1ccc(-c2cnc(N3CCC(NCc4ccc(/C=C/C(=O)NO)nc4)CC3)c(CC#N)c2-c2ccc(C#N)c(F)c2)cc1O [Example 217, (E)-3-(5-(((1-(4-(4-cyano-3-fluorophenyl)-3-(cyanomethyl)-5-(3-hydroxy-4-methoxyphenyl)pyridin-2-yl)piperidin-4-yl)amino)methyl)pyridin-2-yl)-N-hydroxyacrylamide formate]	5.06	0.25	–	0.73	13.6	20.9	11.1	–
N#Cc1ccc(-c2nc(N3CCC(N)CC3)n3ccnc3c2-c2ccc(OCCCCCCC(=O)NO)c(O)c2)cc1F [Example 21, 7-(4-(5-(4-Aminopiperidin-1-yl)-7-(4-cyano-3-fluorophenyl)imidazo[1,2-c]pyrimidin-8-yl)-2-hydroxyphenoxy)-N-hydroxyheptanamide hydrochloride]	65	119	275	400	0.05	–	–	–
N#Cc1ccc(-c2c(-c3ccc(N4CCOCC4)c(O)c3)cnc(N3CCC(NCc4ccc(/C=C/C(=O)NO)cc4)CC3)c2C#N)cn1 [Example 244, (E)-3-(4-(((1-(3′,6-Dicyano-5′-(3-hydroxy-4-morpholinophenyl)-[3,4′-bipyridin]-2′-yl)piperidin-4-yl)amino)methyl)phenyl)-N-hydroxyacrylamide formate]	2.83	1.54	–	0.51	0.98	16.2	1.66	–
COc1ccc(-c2cnc(N3CCC(NCc4ccc(/C=C/C(=O)NO)cc4)CC3)c(C#N)c2-c2cnc(C#N)c(C)c2)cc1O [Example 247, (E)-3-(4-(((1-(3′,6-Dicyano-5′-(3-hydroxy-4-methoxyphenyl)-5-methyl-[3,4′-bipyridin]-2′-yl)piperidin-4-yl)amino)methyl)phenyl)-N-hydroxyacrylamide formate]	4.93	0.87	–	0.84	3.49	7.56	3.17	–
N#Cc1ccc(-c2c(-c3ccc(NC(=O)CCCCCCC(=O)NO)c(O)c3)cnc(N3CCC(N)CC3)c2C#N)cc1F [Example 58, N^1-(4-(6-(4-aminopiperidin-1-yl)-5-cyano-4-(4-cyano-3-fluorophenyl)pyridin-3-yl)-2-hydroxyphenyl)-N^8-hydroxyoctanediamide hydrochloride]	46.3	31.9	136	47.4	0.1	–	3000	–
Cc1ccc(-c2c(-c3ccc(C#N)c(F)c3)nc(N3CCC(NC(=O)CCCCCCC(=O)NO)CC3)n3ccnc23)cc1O [Example 56, N^1-(1-(7-(4-cyano-3-fluorophenyl)-8-(3-hydroxy-4-methylphenyl)imidazo[1,2-c]pyrimidin-5-yl)piperidin-4-yl)-N^8-hydroxyoctanediamide hydrochloride]	5.4	467	893	642	91.5	–	1280	–
COc1cc(N2CCC(N)CC2)nc(-c2ccc(C#N)c(F)c2)c1-c1ccc(/C=C/C(=O)NO)c(O)c1 [Example 28, (E)-3-(4-(6-(4-Amino-piperidin-1-yl)-2-(4-cyano-3-fluorophenyl)-4-methoxypyridin-3-yl)-2-hydroxyphenyl)-N-hydroxyacrylamide formate]	25.5	270	2330	608	0.64	–	–	–
N#Cc1ccc(-c2nc(N3CCC(N)CC3)n3ccnc3c2-c2ccc(OCc3ccc(/C=C/C(=O)NO)cc3)c(O)c2)cc1F [Example 23, (E)-3-(4-(4-(5-(4-Aminopiperidin-1-yl)-7-(4-cyano-3-fluorophenyl)imidazo[1,2-c]pyrimidin-8-yl)-2-hydroxyphenoxy)methyl)phenyl)-N-hydroxyacrylamide hydrochloride]	1.55	74.4	320	198	0.23	–	760	–
COc1cc(N2CCC(N)CC2)nc(-c2ccc(C#N)c(F)c2)c1-c1ccc(OC/C=C/C(=O)NO)c(O)c1 [Example 29, (E)-4-(4-(6-(4-Amino-piperidin-1-yl)-2-(4-cyano-3-fluorophenyl)-4-methoxypyridin-3-yl)-2-hydroxyphenoxy)-N-hydroxybut-2-enamide hydrochloride]	92.2	66.9	696	123	0.96	–	3200	–
COc1ccc(-c2c(OCc3ccc(/C=C/C(=O)NO)cc3)cc(N3CCC(N)CC3)nc2-c2ccc(C#N)c(F)c2)cc1O [Example 2, (E)-3-(4-(((6-(4-Aminopiperidin-1-yl)-2-(4-cyano-3-fluorophenyl)-3-(3-hydroxy-4-methoxyphenyl)pyridin-4-yl)oxy)methyl)phenyl)-N-hydroxyacrylamide hydrochloride]	51.9	66.9	289	92.3	1.58	–	7890	–
CNC1CCN(c2ncc(-c3ccc(NCc4ccc(C(=O)NO)cc4)c(O)c3)c(-c3ccc(C#N)c(F)c3)c2C#N)CC1 [Example 39, 4-((4-(4-(5-Cyano-4-(4-cyano-3-fluorophenyl)-6-(4-(methylamino)piperidin-1-yl)pyridin-3-yl)-2-hydroxyphenyl)amino)methyl)-N-hydroxybenzamide hydrochloride]	5.2	167	207	335	0.15	–	2390	–
Cc1ccc(-c2c(-c3ccc(C#N)c(F)c3)nc(N3CCC(NCCCCCCC(=O)NO)CC3)n3ccnc23)cc1O [Example 34, 7-(1-(7-(4-cyano-3-fluorophenyl)-8-(3-hydroxy-4-methylphenyl)imidazo[1,2-c]pyrimidin-5-yl)piperidin-4-yl)amino)-N-hydroxyheptanamide Hydrochloride]	–	552	353	1060	1.13	–	–	140
COc1ccc(-c2c(-c3ccc(C#N)c(F)c3)nc(N3CCC(N)CC3)n3ccnc23)cc1OCCCCCCC(=O)NO [Example 20, 7-(5-(5-(4-aminopiperidin-1-yl)-7-(4-cyano-3-fluorophenyl)imidazo[1,2-c]pyrimidin-8-yl)-2-methoxyphenoxy)-N-hydroxyheptanamide hydrochloride]	845	96.5	446	311	16.9	–	–	–

Source: patent US20250304549A1, “HYDROXYAMIDE DERIVATIVE AND USE THEREOF” (SICHUAN HUIYU PHARMACEUTICAL CO., LTD., priority 2022, published 2025)
